Molecules are shown by their SMILES. A value given as a limit tells only on which side of the number the result lay.

Data set [1] in a line: Intrinsic clearance in human liver microsomes assessed per mg protein. It is filed as ADME, microsome. To be noted: read-out: CLH. (In general: Liver microsomes are vesicles of endoplasmic reticulum, rich in cytochrome P450 enzymes.)
Data set [2] in a line: Intrinsic clearance in rat liver microsomes assessed per mg protein. As to conditions: read-out: CLH. It counts as ADME, microsome.
Data set [3] in a line: Intrinsic clearance in mouse liver microsomes assessed per mg protein. It counts as ADME, microsome. To be noted: read-out: CLH.
Data set [4] in a line: Permeability from apical to basolateral side in human Caco2 cells. It counts as ADME, cell-based. To be noted: Caco-2, read-out: permeability. In general terms: Caco-2 cells form a polarised layer with tight junctions and transporters.
Data set [5] concerns the target Tyrosine-protein kinase BTK (Homo sapiens, UniProt Q06187). Nature of the data set: Inhibition of BTK (unknown origin).
Data set [6] concerns the target Cytochrome P450 3A4 (Homo sapiens, UniProt P08684). Briefly: Inhibition of CYP3A4 (unknown origin). It is filed as ADME.
Data set [7] in a line: Fraction unbound in mouse plasma. It counts as ADME, cell-free.
A short description of data set [8]: Half life in rat at 0.5 mg/kg, po. It is filed as ADME, organism-based. As to conditions: in vivo.
Data set [9] in a line: Fraction unbound in human plasma. It counts as ADME, cell-free.
For data set [10], the target named is Cytochrome P450 2C19 (Homo sapiens, UniProt P33261). Briefly: Inhibition of CYP2C19 (unknown origin). It is filed as ADME.
Chain of Cytochrome P450 2C19 (P33261 whole entry): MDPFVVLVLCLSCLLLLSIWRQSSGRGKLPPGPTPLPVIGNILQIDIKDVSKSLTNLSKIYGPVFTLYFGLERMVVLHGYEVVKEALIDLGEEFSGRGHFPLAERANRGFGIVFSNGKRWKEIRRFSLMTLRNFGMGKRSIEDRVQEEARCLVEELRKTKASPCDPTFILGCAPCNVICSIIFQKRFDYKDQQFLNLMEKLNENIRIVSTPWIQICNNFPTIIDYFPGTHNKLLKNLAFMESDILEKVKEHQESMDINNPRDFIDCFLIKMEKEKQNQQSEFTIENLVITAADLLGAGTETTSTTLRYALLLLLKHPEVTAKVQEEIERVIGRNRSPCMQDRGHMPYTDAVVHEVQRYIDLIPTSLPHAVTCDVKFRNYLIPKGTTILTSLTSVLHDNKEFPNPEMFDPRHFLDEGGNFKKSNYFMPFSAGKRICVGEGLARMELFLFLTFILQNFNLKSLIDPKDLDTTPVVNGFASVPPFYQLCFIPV
Data set [11] has as its target Cytochrome P450 2C9 (Homo sapiens, UniProt P11712). Nature of the data set: Inhibition of CYP2C9 (unknown origin). It counts as ADME.
The target of data set [12] is EGFR (Homo sapiens, UniProt P00533). Briefly: Inhibition of EGFR (unknown origin) at 1 uM relative to control.
Chain of EGFR (P00533 whole entry): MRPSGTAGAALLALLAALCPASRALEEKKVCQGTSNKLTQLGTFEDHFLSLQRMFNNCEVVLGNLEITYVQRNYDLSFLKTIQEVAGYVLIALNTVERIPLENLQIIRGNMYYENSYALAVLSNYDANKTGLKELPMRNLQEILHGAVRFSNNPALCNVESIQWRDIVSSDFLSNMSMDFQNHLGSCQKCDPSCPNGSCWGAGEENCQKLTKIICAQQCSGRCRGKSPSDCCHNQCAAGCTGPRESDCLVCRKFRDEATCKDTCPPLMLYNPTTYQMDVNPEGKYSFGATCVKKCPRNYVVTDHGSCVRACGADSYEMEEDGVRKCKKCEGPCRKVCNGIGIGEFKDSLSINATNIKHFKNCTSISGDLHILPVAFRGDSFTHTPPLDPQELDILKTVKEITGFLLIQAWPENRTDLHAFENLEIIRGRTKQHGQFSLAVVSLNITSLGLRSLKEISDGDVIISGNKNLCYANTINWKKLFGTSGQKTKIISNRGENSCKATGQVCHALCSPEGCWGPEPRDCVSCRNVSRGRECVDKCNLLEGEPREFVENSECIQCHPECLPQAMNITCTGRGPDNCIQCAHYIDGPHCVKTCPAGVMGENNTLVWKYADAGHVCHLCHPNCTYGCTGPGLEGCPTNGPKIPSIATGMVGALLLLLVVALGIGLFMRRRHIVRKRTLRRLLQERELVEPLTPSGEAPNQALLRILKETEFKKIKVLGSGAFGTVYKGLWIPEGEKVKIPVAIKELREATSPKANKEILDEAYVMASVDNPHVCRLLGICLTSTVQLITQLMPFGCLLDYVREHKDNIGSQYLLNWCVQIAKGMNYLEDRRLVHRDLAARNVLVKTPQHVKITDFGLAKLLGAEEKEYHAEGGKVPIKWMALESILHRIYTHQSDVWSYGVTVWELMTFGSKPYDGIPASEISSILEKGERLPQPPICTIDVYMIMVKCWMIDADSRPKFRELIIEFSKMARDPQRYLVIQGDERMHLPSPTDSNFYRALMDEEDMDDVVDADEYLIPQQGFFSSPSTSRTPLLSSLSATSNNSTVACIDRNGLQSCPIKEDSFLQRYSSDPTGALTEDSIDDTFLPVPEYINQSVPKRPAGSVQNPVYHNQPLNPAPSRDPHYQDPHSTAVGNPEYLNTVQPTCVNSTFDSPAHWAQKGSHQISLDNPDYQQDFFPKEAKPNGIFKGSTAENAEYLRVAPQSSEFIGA
The nature of data set [13]: Oral bioavailability in rat at 0.5 mg/kg. It is filed as ADME, organism-based. As to conditions: in vivo.
Data set [14] has as its target T1, Cytochrome P450 2B6 (Homo sapiens, UniProt P20813).
T1 sequence (P20813 whole entry): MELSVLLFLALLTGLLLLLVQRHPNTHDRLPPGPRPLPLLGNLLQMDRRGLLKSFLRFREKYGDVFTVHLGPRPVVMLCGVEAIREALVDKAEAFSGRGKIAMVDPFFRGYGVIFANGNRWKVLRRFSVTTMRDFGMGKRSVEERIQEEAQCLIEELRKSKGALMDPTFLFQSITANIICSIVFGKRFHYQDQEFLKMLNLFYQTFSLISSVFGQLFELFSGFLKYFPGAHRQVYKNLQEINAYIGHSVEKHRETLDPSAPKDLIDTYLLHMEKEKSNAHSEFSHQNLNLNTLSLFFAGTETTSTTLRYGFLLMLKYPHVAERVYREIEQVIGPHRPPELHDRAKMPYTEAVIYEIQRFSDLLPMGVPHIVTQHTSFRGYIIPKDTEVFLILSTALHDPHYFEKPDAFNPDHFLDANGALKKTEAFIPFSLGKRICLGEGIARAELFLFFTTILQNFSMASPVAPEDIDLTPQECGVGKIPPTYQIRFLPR
Briefly: Inhibition of CYP2B6 (unknown origin). It is filed as ADME.

A short description of data set [15]: Fraction unbound in rat plasma. It is filed as ADME, cell-free.
Data set [16] deals with Voltage-gated inwardly rectifying potassium channel KCNH2 (Homo sapiens, UniProt Q12809). Briefly: Binding affinity to human ERG.
Chain of Voltage-gated inwardly rectifying potassium channel KCNH2 (Q12809 whole entry): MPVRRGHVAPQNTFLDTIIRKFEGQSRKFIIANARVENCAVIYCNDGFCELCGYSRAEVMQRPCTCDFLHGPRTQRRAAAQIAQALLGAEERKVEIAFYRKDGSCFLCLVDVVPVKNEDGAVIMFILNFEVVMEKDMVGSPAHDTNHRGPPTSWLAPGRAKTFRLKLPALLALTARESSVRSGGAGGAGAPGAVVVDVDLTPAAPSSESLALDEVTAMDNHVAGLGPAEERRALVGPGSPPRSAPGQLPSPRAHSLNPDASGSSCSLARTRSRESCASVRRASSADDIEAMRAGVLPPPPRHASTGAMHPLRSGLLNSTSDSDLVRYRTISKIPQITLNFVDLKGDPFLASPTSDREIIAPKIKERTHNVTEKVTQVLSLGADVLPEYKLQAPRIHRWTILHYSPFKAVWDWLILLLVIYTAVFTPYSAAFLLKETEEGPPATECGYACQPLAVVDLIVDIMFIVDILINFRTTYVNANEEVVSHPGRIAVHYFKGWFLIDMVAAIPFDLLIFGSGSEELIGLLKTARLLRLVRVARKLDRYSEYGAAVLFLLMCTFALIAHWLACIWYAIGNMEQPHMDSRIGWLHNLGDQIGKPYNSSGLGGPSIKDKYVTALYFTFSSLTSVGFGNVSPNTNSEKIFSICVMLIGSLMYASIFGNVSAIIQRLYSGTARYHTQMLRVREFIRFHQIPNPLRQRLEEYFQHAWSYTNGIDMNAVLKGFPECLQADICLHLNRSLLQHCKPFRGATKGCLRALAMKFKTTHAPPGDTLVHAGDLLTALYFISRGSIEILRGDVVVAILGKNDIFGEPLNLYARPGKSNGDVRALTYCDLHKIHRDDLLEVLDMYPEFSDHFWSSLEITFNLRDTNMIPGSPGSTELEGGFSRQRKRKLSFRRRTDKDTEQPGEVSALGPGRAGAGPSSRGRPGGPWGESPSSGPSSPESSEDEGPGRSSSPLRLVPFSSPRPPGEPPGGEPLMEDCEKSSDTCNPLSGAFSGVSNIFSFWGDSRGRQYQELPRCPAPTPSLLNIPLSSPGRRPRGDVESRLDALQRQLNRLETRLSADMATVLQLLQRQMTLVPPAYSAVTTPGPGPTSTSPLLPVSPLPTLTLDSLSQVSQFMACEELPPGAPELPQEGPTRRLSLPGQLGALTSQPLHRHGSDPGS
In data set [17] the target is T2, Cytochrome P450 2C8 (Homo sapiens, UniProt P10632).
T2 sequence (P10632 whole entry): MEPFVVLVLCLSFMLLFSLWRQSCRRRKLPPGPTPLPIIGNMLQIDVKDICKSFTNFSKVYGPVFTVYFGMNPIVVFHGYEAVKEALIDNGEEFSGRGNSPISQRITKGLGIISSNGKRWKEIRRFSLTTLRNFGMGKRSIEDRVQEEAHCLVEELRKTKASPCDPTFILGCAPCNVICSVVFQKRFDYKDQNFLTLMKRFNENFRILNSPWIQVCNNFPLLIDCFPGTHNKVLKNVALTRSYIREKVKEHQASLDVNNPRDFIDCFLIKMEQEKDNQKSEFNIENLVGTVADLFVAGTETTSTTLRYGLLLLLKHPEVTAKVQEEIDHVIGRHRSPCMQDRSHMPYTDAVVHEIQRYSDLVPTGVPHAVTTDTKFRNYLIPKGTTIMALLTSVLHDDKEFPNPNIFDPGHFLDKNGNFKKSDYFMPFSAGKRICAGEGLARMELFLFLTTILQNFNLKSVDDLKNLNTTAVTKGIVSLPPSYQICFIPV
Briefly: Inhibition of CYP2C8 (unknown origin). It counts as ADME.

In data set [18] the target is Tyrosine-protein kinase Blk (Homo sapiens) (UniProt P51451). Nature of the data set: Inhibition of Blk (unknown origin) at 1 uM relative to control.
Chain of Tyrosine-protein kinase Blk (Homo sapiens) (P51451 2-505 limits assumed): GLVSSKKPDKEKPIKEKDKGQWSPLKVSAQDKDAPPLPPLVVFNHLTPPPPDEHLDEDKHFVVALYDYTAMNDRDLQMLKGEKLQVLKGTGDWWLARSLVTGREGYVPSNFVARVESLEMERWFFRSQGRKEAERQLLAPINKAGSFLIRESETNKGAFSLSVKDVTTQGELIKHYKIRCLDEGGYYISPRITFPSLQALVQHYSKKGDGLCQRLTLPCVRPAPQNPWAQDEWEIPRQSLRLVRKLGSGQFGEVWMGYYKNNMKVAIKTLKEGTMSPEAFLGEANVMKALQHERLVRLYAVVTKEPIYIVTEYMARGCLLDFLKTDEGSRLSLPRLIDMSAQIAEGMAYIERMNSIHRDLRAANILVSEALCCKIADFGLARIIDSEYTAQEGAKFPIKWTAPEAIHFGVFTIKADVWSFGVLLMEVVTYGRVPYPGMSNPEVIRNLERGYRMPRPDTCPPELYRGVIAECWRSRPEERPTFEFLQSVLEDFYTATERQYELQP
The target of data set [19] is T3, Tyrosine-protein kinase TXK (Homo sapiens) (UniProt P42681).
T3 sequence (whole entry): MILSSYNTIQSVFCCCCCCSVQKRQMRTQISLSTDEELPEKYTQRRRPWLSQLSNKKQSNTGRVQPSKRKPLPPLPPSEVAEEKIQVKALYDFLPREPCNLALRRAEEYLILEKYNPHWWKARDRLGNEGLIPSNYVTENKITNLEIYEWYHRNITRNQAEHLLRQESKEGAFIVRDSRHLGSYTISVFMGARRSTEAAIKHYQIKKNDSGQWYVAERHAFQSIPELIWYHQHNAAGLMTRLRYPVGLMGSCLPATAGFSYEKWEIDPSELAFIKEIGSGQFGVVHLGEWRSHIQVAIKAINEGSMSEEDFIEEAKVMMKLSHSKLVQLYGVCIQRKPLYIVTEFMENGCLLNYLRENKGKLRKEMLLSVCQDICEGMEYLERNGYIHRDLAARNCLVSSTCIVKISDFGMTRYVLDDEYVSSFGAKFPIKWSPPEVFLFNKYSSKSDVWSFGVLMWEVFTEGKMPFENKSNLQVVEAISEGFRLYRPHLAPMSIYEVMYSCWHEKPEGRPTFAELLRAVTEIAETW
Briefly: Inhibition of TXK (unknown origin) at 1 uM relative to control.

For data set [20], the target named is T4, Cytoplasmic tyrosine-protein kinase BMX (Homo sapiens) (UniProt P51813).
T4 sequence (whole entry): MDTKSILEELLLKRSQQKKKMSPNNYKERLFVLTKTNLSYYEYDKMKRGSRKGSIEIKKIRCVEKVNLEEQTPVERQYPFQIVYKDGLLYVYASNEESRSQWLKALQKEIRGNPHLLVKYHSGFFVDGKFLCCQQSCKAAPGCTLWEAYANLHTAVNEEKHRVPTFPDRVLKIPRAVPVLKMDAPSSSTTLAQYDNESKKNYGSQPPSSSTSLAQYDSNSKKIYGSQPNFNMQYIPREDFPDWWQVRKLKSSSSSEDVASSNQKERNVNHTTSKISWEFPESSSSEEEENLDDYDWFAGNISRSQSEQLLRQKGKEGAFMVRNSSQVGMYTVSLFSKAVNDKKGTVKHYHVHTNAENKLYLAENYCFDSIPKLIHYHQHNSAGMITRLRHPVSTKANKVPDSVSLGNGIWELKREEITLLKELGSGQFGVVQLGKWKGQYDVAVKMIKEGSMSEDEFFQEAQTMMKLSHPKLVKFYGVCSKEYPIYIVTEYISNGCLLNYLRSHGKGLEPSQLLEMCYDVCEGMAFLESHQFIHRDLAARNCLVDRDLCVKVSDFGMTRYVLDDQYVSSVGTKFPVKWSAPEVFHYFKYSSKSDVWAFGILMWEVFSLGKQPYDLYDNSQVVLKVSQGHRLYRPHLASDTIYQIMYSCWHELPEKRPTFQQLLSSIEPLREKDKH
Nature of the data set: Inhibition of BMX (unknown origin) at 1 uM relative to control.

The nature of data set [21]: Clearance in rat at 0.5 mg/kg, po. To be noted: in vivo.
Data set [22] has as its system Rattus norvegicus. Briefly: Volume of distribution at steady state in rat at 0.5 mg/kg, po. It is filed as ADME, organism-based. To be noted: in vivo.

Chain of Tyrosine-protein kinase BTK (Q06187 whole entry): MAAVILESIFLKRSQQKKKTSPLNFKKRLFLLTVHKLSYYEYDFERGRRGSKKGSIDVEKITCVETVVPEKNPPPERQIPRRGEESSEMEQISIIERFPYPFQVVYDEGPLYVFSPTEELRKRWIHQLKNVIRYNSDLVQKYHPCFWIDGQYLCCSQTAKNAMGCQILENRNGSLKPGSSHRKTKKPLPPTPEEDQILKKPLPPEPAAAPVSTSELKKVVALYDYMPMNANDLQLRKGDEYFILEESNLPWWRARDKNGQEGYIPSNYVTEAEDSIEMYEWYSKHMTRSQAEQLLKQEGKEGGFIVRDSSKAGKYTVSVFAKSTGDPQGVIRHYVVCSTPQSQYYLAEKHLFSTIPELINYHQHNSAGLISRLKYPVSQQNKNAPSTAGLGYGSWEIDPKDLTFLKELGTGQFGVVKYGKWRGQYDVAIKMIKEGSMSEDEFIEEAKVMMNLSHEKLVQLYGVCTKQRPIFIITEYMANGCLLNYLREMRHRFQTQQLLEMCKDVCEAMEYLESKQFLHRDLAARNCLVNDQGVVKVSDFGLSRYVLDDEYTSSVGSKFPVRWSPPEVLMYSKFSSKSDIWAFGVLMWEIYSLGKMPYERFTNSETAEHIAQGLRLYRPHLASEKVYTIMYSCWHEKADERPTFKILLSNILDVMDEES
Chain of Cytochrome P450 3A4 (P08684 whole entry): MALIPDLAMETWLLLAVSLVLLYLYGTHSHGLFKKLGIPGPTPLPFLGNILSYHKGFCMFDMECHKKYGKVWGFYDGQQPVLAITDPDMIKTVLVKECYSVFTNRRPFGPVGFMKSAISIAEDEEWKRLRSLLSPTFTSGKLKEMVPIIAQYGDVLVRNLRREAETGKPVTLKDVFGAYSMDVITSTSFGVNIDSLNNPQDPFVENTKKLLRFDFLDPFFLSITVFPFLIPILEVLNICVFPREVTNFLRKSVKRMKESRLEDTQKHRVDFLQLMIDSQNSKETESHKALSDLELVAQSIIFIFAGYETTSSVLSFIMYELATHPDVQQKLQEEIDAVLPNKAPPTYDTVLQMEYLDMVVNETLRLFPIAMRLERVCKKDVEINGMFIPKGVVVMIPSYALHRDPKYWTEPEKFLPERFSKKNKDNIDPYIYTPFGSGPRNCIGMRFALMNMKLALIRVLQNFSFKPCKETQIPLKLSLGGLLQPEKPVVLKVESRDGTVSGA
Chain of Cytochrome P450 2C9 (P11712 whole entry): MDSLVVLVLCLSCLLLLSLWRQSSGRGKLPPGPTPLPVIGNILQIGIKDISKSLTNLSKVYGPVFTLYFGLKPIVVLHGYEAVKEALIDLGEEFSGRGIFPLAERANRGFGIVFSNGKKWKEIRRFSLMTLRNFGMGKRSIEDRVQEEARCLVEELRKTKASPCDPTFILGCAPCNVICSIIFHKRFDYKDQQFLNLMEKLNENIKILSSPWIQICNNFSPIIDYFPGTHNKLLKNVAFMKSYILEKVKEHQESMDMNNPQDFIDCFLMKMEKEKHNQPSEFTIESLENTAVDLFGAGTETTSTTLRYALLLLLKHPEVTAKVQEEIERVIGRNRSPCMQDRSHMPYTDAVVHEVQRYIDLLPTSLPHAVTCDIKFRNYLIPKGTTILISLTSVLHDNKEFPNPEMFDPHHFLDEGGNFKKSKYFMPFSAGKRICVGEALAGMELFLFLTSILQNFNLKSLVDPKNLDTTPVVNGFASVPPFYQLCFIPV

Take `C=CC(=O)N[C@@H]1CCCN(c2ccc(C(N)=O)c(Oc3ccc(Oc4ccccc4)cc3)n2)C1`: the microsomal CLint was 309 µL/min/mg in data set [1], 1000 µL/min/mg in [2] and 488 µL/min/mg in data set [3].

Regarding `C=CC(=O)N1CC[C@@H](Nc2ccc(C(N)=O)c(Oc3ccc(Oc4ccccc4)cc3)n2)C1`, the Papp A→B in [4] stood at 100 nm/s. In addition, the results for the microsomal CLint in [1], in data set [2] and in [3] were 156 µL/min/mg, 136 µL/min/mg and 191 µL/min/mg, respectively.

Regarding `C=CC(=O)N1C[C@H]2C[C@@H]1CN2c1ccc(C(N)=O)c(Oc2ccc(Oc3ccccc3)cc2)n1`, the Papp A→B in data set [4] was found to be 80 nm/s. For the same compound, the microsomal CLint is 33 µL/min/mg in [1], 148 µL/min/mg in [2] and 472 µL/min/mg in data set [3].

In the case of `C=CC(=O)N1CCN(c2ccc(C(N)=O)c(Oc3ccc(Oc4ccccc4)cc3)n2)CC1`, the Papp A→B in data set [4] is 130 nm/s. In addition, the results for the microsomal CLint in data set [1], in data set [2] and in [3] were < 10 µL/min/mg, 97 µL/min/mg and 18 µL/min/mg, respectively.

As for `C=CC(=O)N[C@H]1CCN(c2ccc(C(N)=O)c(Oc3ccc(C(=O)N4CCOCC4)cc3)n2)C1`, in [5], it took 10 µM to reach half-maximal inhibition (IC50).

Turning to `C=CC(=O)N[C@H]1CCN(c2ccc(C(N)=O)c(Nc3ccc(C(=O)N4CCOCC4)cc3)n2)C1`, the IC50 – broadly, the concentration that gives 50% inhibition – in [5] was 0.0016 µM.

As for `C=CC(=O)N1C2CC1CN(c1ccc(C(N)=O)c(Oc3ccc(Oc4ccccc4)cc3)n1)C2`, the microsomal CLint in [1] came to 49 µL/min/mg; in data set [2], 167 µL/min/mg; in data set [3], 647 µL/min/mg.

For `C=CC(=O)NCC1CCCN(c2ccc(C(N)=O)c(Oc3ccc(Oc4ccccc4)cc3)n2)C1` (configuration not stated), the microsomal CLint in [1] stood at 140 µL/min/mg; in data set [2], 302 µL/min/mg; in [3], 562 µL/min/mg.

For `C=CC(=O)N1CC[C@H](Nc2ccc(C(N)=O)c(Oc3ccc(Oc4ccccc4)cc3)n2)C1`, the Papp A→B in data set [4] worked out at 30 nm/s. For the same compound, the figures for the microsomal CLint in [1], in data set [2] and in data set [3] were 125 µL/min/mg, 254 µL/min/mg and 228 µL/min/mg, respectively.

`C=CC(=O)N1CCC[C@@H](n2nc(-c3ccc(Oc4ccccc4)cc3)c3c(N)ncnc32)C1` [IBRUTINIB]: the IC50 in data set [6] amounted to 11 µM; in data set [10] it was 19 µM; in data set [11] it was 8.5 µM; in [14], 11.1 µM. Besides, the fraction unbound (usually the share of the substance not bound to proteins or other matrix) in data set [7] turned out to be 0.017; in data set [9], 0.025; in data set [15], 0.02. Further, the Papp A→B in data set [4] worked out at 72 nm/s. The half-life – broadly, the time needed for the level to fall by half in the phase considered – in data set [8] was 30 min. The inhibition (usually the change of the read-out against control, counted positive when it falls) at 1 µM in data set [12] is > 50%. Further, in [13], the bioavailability (usually dose-corrected exposure relative to a reference, in per cent) stood at 12%.

Take `C=CC(=O)N[C@H]1CCN(c2ccc(C(N)=O)c(Oc3ccc(Oc4ccccc4)cc3)n2)C1`: in data set [4], the Papp A→B is 140 nm/s. For the same compound, the microsomal CLint worked out at 10 µL/min/mg in data set [1], 21 µL/min/mg in [2] and 27 µL/min/mg in data set [3].

Turning to `C=CC(=O)N1C2CCC1CN(c1ccc(C(N)=O)c(Oc3ccc(Oc4ccccc4)cc3)n1)C2`, the Papp A→B in [4] came to 6 nm/s. Also, the microsomal CLint turned out to be 106 µL/min/mg in data set [1], 145 µL/min/mg in data set [2] and 315 µL/min/mg in data set [3].

For the compound `C=CC(=O)N1C[C@@H]2C[C@H]1CN2c1ccc(C(N)=O)c(Oc2ccc(Oc3ccccc3)cc2)n1`, the affinity in data set [16] corresponds to a Ki of 2.2 µM. The same compound came in with an IC50 in data set [17] of 0.1 µM. Further, the fraction unbound in data set [7] amounted to 0.002; in data set [9], 0.0046; in [15] it was 0.0031. Besides, the Papp A→B in [4] lay in the range of 67 to 68 nm/s. Further, the half-life in [8] is 43.2 min. For the same compound, the inhibition in [18] was found to be 96%; in data set [19], 54%; in data set [20], 95%. Moreover, the microsomal CLint was 74 µL/min/mg in data set [1], 203 µL/min/mg in [2] and 62 µL/min/mg in data set [3]. Moreover, the bioavailability in [13] turned out to be 47%. Besides, the CL/F (commonly clearance divided by bioavailability, as obtained after extravascular dosing) in [21] was 1.24 L/h/kg. This compound gave a Vdss in data set [22] of 0.86 L/kg.

The record behind these values is ChEMBL document CHEMBL4229542 (Bioorg Med Chem Lett, 2018).
